Results as given in patent publication US20260209253A1, “SILVER ION COMPLEX GEMINI QUATERNARY AMMONIUM SALT: PREPARATION METHOD AND APPLICATIONS” (ANHUI KIWI BIOTECH CO., LTD, priority 2023, published 2026).

Test system: Escherichia coli
Experiment: suspension quantitative bactericidal test (2.1.1.7.4, Disinfection Technical Specifications 2002 edition), 30 min
Type: cell-based
Conditions: for antibacterial performance (in words): Table 3, 0.0015625% and 0.00078125% aqueous solutions
Method: (§1) Referring to 2.1.1.7.4 suspension quantitative bactericidal test (2002 edition of Disinfection Technical Specifications), neutralizer was prepared: 2.1% lecithin+2.0% glucose+0.5% sodium thiosulfate+1.5% tween-80+0.5% peptone+1.2% sodium sulfite aqueous solution. C6-S—Cl (Example 1), C8-S—Cl (Example 3) and C10-S—Cl (Example 5) were diluted into 0.0015625% and 0.00078125% aqueous solutions, and the bactericidal experiment was carried out for 30 min to Escherichia coli.
as §1, with “solution.” for “solution. C6-S—Cl (Example 1),”, “3), C8-S—Br (Example 4)” for “3)”, “C8-S—NO3” for “C10-S—Cl”, “7)” for “5)”
Referring to 2.1.1.7.4 suspension quantitative bactericidal test (2002 edition of Disinfection Technical Specifications), neutralizer was prepared: 2.1% lecithin+2.0% glucose+0.5% sodium thiosulfate+1.5% tween-80+0.5% peptone+1.2% sodium sulfite aqueous solution. C8-S—Cl (Example 3), C8-S—NO3—Ag^+ (Example 3), C8-S—CI—Cu^2+ (ratio 1), C8-S—CI—Mn^2+ (ratio 2), C8-S—CI—Fe^3+ (ratio 3), AgNO3, CuCl2, MnCl2, and FeCl3 were dissolved to 0.0015625% and 0.00078125% aqueous solution.
Referring to 2.1.1.7.4 suspension quantitative bactericidal test (2002 edition of Disinfection Technical Specifications), neutralizer was prepared: 2.1% lecithin+2.0% glucose+0.5% sodium thiosulfate+1.5% tween-80+0.5% peptone+1.2% sodium sulfite aqueous solution. C8-S—Cl (Example 3), C8-S—NO3 (Example 7) and C8-S—NO3—Ag^+ (Example 3) were configured into 0.0015625%, 0.00078125% and 0.000390625% aqueous solutions.
Referring to 2.1.1.7.4 suspension quantitative bactericidal test (2002 edition of Disinfection Technical Specifications), neutralizer was prepared: 2.1% lecithin+2.0% glucose+0.5% sodium thiosulfate+1.5% tween-80+0.5% peptone+1.2% sodium sulfite aqueous solution. The bactericidal experiment was carried out on E. coli for 30 min by preparing the silver-ion complex Gemini quaternary ammonium salt (Example 3), C10 chlorinated sulfur-free Gemini quaternary ammonium salt (Comparative example 4) and uncomplex silver-ion Gemini quaternary ammonium salt (Comparative example 4) into 0.0015625%, 0.00078125% and 0.000390625% aqueous solutions.

[1] = Table 1, 0.00078125% aqueous solution, Escherichia coli
[2] = Table 1, 0.0015625% aqueous solution, Escherichia coli
[3] = Table 2, 0.00078125% aqueous solution, Escherichia coli
[4] = Table 2, 0.0015625% aqueous solution, Escherichia coli
[5] = Table 3, 0.00078125% aqueous solution, Escherichia coli
[6] = Table 3, 0.0015625% aqueous solution, Escherichia coli
[7] = Table 5, 0.000390625% aqueous solution, E. coli
[8] = Table 5, 0.00078125% aqueous solution, E. coli
[9] = Table 5, 0.0015625% aqueous solution, E. coli
[10] = Table 4, 0.000390625% aqueous solution, Escherichia coli
[11] = Table 4, 0.00078125% aqueous solution, Escherichia coli
[12] = Table 4, 0.0015625% aqueous solution, Escherichia coli

Row | SMILES | Treated (cfu/mL) [1] | sterilizing rate [1] [%] | Treated (cfu/mL) [2] | sterilizing rate [2] [%] | Treated (cfu/mL) [3] | sterilizing rate [3] [%] | Treated (cfu/mL) [4] [cfu/mL] | sterilizing rate [4] [%] | Treated (cfu/mL) [5] | sterilizing rate [5] | Treated (cfu/mL) [6] | sterilizing rate [6] | antibacterial performance (in words) (Escherichia coli) | other results
1 | CCCCCCCCSCCC(=O)OCC[N+](C)(C)CCC[N+](C)(C)CCOC(=O)CCSCCCCCCCC [Example C8-S-Cl] | 1.9 × 10^2 cfu/mL | >99.99 | 90 cfu/mL | >99.999 | 1.7 × 10^3 cfu/mL | >99.99 | 79 | >99.999 | 1.8 × 10^3 cfu/mL | >99.99% | 86 cfu/mL | >99.999% |  | bactericidal rate (Table 1, 0.0015625% and 0.00078125% aqueous solutions, Escherichia coli): above 99.99%; Treated (cfu/mL) [7]: 2.6 × 10^5 cfu/mL; sterilizing rate [7]: 99.985%; Treated (cfu/mL) [8]: 1.8 × 10^3 cfu/mL; sterilizing rate [8]: >99.99%; Treated (cfu/mL) [9]: 82 cfu/mL; sterilizing rate [9]: >99.999%
2 | CCCCCCCCCC(=O)OCC[N+](C)(C)CCC[N+](C)(C)CCOC(=O)CCCCCCCCC [Example C10-Cl, reference compound] |  |  |  |  |  |  |  |  |  |  |  |  |  | Treated (cfu/mL) [7]: 4.3 × 10^5 cfu/mL; sterilizing rate [7]: 99.978%; Treated (cfu/mL) [8]: 3.5 × 10^3 cfu/mL; sterilizing rate [8]: >99.99%; Treated (cfu/mL) [9]: 1.2 × 10^2 cfu/mL; sterilizing rate [9]: >99.999%
3 | CCCCCCSCCC(=O)OCC[N+](C)(C)CCC[N+](C)(C)CCOC(=O)CCSCCCCCC [Example C6-S-Cl] | 4.0 × 10^5 cfu/mL | 98.621 | 3.2 × 10^3 cfu/mL | 99.989 |  |  |  |  |  |  |  |  |  | 
4 | CCCCCCCCSCCC(=O)OCC[N+](C)(C)CCC[N+](C)(C)CCOC(=O)CCSCCCCCCCC [Example C8-S-Br] |  |  |  |  | 1.1 × 10^3 cfu/mL | >99.99 | 75 | >99.999 |  |  |  |  |  | 
5 | [Cl][Mn][Cl] [MnCl2, reference compound] |  |  |  |  |  |  |  |  | 8.9 × 10^7 cfu/mL | No bactericidal effect | 2.3 × 10^7 cfu/mL | No bactericidal effect | did not show any antibacterial performance | 
6 | CCCCCCCCSCCC(=O)OCC[N+](C)(C)CCC[N+](C)(C)CCOC(=O)CCSCCCCCCCC [Example C8-S-NO3] |  |  |  |  | 1.4 × 10^2 cfu/mL | >99.999 | 13 | >99.999 |  |  |  |  |  | bactericidal rate (Table 2, 0.0015625% and 0.00078125% aqueous solutions, Escherichia coli): above 99.999%; Treated (cfu/mL) [10]: 4.5 × 10^4 cfu/mL; sterilizing rate [10]: >99.99%; Treated (cfu/mL) [11]: 2.5 × 10^2 cfu/mL; sterilizing rate [11]: >99.99%; Treated (cfu/mL) [12]: 13 cfu/mL; sterilizing rate [12]: >99.999%
7 | [Cl][Cu][Cl] [CuCl2, reference compound] |  |  |  |  |  |  |  |  | 4.9 × 10^8 cfu/mL | No bactericidal effect | 3.2 × 10^7 cfu/mL | No bactericidal effect | did not show any antibacterial performance | 
8 | [Cl][Fe]([Cl])[Cl] [FeCl3, reference compound] |  |  |  |  |  |  |  |  | 6.2 × 10^8 cfu/mL | No bactericidal effect | 4.3 × 10^7 cfu/mL | No bactericidal effect | did not show any antibacterial performance | 
9 | O=[N+]([O-])[O-].[Ag+] [AgNO3, reference compound] |  |  |  |  |  |  |  |  | 1.3 × 10^8 cfu/mL | No bactericidal effect | 2.2 × 10^7 cfu/mL | No bactericidal effect | did not show any antibacterial performance | 
10 | CCCCCCCCCCSCCC(=O)OCC[N+](C)(C)CCC[N+](C)(C)CCOC(=O)CCSCCCCCCCCCC [Example C10-S-Cl] | 4.6 × 10^4 cfu/mL | 99.841 | 5.8 × 10^2 cfu/mL | >99.99 |  |  |  |  |  |  |  |  |  | 
